Test results reported in patent US20170143712A1, “Methods of Treating Cancers, Immune and Autoimmune Diseases, and Inflammatory Diseases Based on BTK Occupancy and BTK Resynthesis Rate” (Acerta Pharma B.V., priority 2014, published 2017).

Legend:
Type in all cases: in vivo
[1] = tested on: established type II collagen-induced arthritis (CIA) in DBA/1 mice; assay: 14-day mouse established type II collagen-induced arthritis (CIA), PO QD (Example 10); conditions: 0.2 mg/kg PO QD; mean(SE)
Experimental: Prior to dosing, the candidate anti-inflammatory agents were reconstituted either by vortexing or stirring. The candidate anti-inflammatory agents were administered to the DBA/1 mice daily (QD) by the oral (PO) route.
Immunization with heterologous type II collagen (CII) induces arthritis in mice of the DBA/1 strain, which is genetically susceptible to this disease. To develop an experimental model of autoimmunity more adequate for the study of human rheumatoid arthritis (RA), male DBA/1 mice were injected intradermally (ID) with bovine type II collagen to induce arthritis as reported by Trentham et al (Trentham D E, Townes A S, Kang A H Autoimmunity to type II collagen: an experimental model of arthritis. J. Exper. Med. 1977, 146:857-868) and Bendele A (Bendele A, Animal models of rheumatoid arthritis. J. Musculoskelet. Neuronal Interact. 2001, 1(4):377-85). Male DBA/1 mice (n=114) that were 6-7 weeks old and weighed approximately 18-27 grams (mean 22 g) at enrollment (arthritis day 1) were obtained from Taconic Farms, Inc. The male DBA/1 mice were at least 6 weeks old at time of first immunization and were housed 3-5/cage in shoe-box polycarbonate cages with wire tops, wood chip bedding, and suspended food and water bottles. These animals were identified by a distinct number of ink marks at the base of the tail delineating animal number. After enrollment, all cages were labeled with protocol number, group number, and animal numbers.
The male DBA/1 (n=10/group for arthritis) were anaesthetized with Isoflurane, shaved at the base of the tail, and injected intradermally with 150 μL of Freund's Complete Adjuvant (Difco, Detroit, Mich.) containing bovine type II collagen (BBP, batch #7) (1 mg/ml) at the base of the tail on day 0 and again on day 21. […] Randomization was done after swelling was obviously established in at least one paw (score of 1) and attempts were made to ensure approximately equal mean scores of 0.5-1 across groups at the time of enrollment. […] The male DBA/1 mice were terminated on arthritis day 14 (3 hours post-dose).
(§1) Efficacy evaluation of the administered anti-inflammatory agents was based on animal body weights, clinical arthritis scores, arthritis scores expressed as area under the curve (AUC), and histopathology on fore paws, hind paws, and knees. Histopathology results were expressed as 4 paws, knees only, or 6 joints (knees included). Day 13 was used as the endpoint for analysis of body weight change since the male DBA/1 mice were fasted overnight prior to necropsy on day 14.

[2] = tested on: established type II collagen-induced arthritis (CIA) in DBA/1 mice; assay: Mouse established CIA, dosing from arthritis day 8, QD or BID (Example 11)
From the text: A study was designed to determine the efficacy of a covalently acting BTK inhibitor, Formula (II) in inhibiting acute inflammation, pannus formation, cartilage destruction, and bone resorption associated with established type II collagen-induced arthritis (CIA) in DBA/1 mice. Immunization with heterologous type II collagen (CII) induces arthritis in mice of the DBA/1 strain, which is genetically susceptible to this disease. To develop an experimental model of autoimmunity more adequate for the study of human rheumatoid arthritis (RA), male DBA/1 mice were injected intradermally (ID) with bovine type II collagen to induce arthritis as reported by Trentham et al (Trentham D E, Townes A S, Kang A H Autoimmunity to type II collagen: an experimental model of arthritis. J. Exper. Med. 1977, 146:857-868) and Bendele A (Bendele A, Animal models of rheumatoid arthritis. J. Musculoskelet. Neuronal Interact. 2001, 1(4):377-85).
Following acclimatization, 6-7 week old male DBA/1 mice (n=10/group for arthritis) were immunized at the base of the tail, with 150 μL of Freund's Complete Adjuvant (Difco, Detroit, Mich.) containing 1 mg/mL bovine type II collagen by intradermal injection. Immunizations were performed day 0 and again on day 21. On study days 25-26, on day 8 following onset of arthritis, the mice were randomized into treatment groups. […] Dosing began on arthritis day 8 by oral gavage. Groups were treated with vehicle (0.4% HPMC, 0.2% Tween 80), Formula (II) at 25 mg/kg QD, Formula (II) at 12.5 mg/kg BID, or the reference compound dexamethasone (Dex) at 0.2 mg/kg QD. These animals were fasted overnight on arthritis day 20 (13 days after enrollment) prior to necropsy on arthritis day 21. Clinical scores were given for each of the paws (right front, left front, right rear, left rear) on arthritis days 1-21.
as §1, with “evaluation” for “evaluation of the administered anti-inflammatory agents”, “19” for “13”, “21.” for “14.”
Necropsies were conducted on fasted mice and terminal serum, fore paws, hind paws, and knees were collected into 10% neutral buffered formalin (NBF) for microscopy. Spleens were harvested and weighed.

[3] = tested on: systemic lupus erythematosus (SLE) in MRL/MpJFASlpr mice; assay: MRL/MpJFASlpr mouse model of systemic lupus erythematosus; conditions: 15 mg/kg IP QD
Experimental: A study designed to determine the effects of candidate anti-inflammatory agent Formula (II) in oral (PO), daily (QD) administration in the treatment of systemic lupus erythematosus (SLE) in MRL/MpJFASlpr mice. Formula (II) was preformulated in vehicle (0.4% HPMC, 0.1% Tween 80, with simethicone for antifoaming). The female MRL/MpJFASlpr mice were dosed with vehicle or Formula (II) (1, 5, or 25 mg/kg) daily (QD) by the oral (PO) route dosing, or they were dosed QD by the intraperitoneal (IP) route with the reference compound cyclophosphamide (15 mg/kg). Prior to dosing, the candidate anti-inflammatory agent was reconstituted either by vortexing or stirring. […]
Female MRL/MpJFASlpr mice (n=50) that were 8-9 weeks old and weighed approximately 28-41 grams (mean 34 g) at enrollment (mouse age approx. 12 weeks) were obtained from The Jackson Laboratory, Bar Harbor, Me. (stock number 000485). These mice were housed 3-5/cage in shoe-box polycarbonate cages with wire tops, wood chip bedding, and suspended food and water bottles. No concurrent medications were given.
When they were 12 weeks old (study day 0), the female MRL/MpJFASlpr mice (n=10/group) were randomized by body weight into 5 groups as shown above. Treatment was initiated after randomization and continued for […] (mouse age 12 weeks to 23 weeks).
Starting on study week one, and then every week thereafter urine from each animal was tested for proteinuria using the Clinitech Multistick test strip (Bayer). The animals were also observed daily for significant clinical signs, moribundity and mortality. […] Efficacy evaluation was based on animal body weights, proteinuria analysis, lymphadenopathy scores, skin lesion scores, organ weights, anti-dsDNA titers, clinical chemistry parameters, and histopathologic evaluation of the kidneys.
Any animals showing signs of morbundity were terminated immediately. At necropsy (3 h post-dose, mouse age 23 weeks), all remaining animals were anesthetized with Isoflurane and bled via cardiac puncture for serum and plasma (Li Heparin). The animals were bled to exsanguinate then euthanized by cervical dislocation. Spleens, kidneys (paired), and lymph nodes were collected and weighed. Kidneys were collected into 10% neutral buffered formalin (NBF). Spleens were placed in RPMI 1% FBS media for splenocyte isolation. Serum samples for potential clinical chemistry analysis were stored frozen at −80° C. until shipment to Antech Diagnostics. Plasma samples were stored frozen at −80° C. for mouse antidsDNA IgG analysis by ELISA.
Blood samples were drawn via cardiac puncture from Isoflurane anesthetized animals into serum separator microtainer tubes for clinical chemistries. Samples were shipped to Antech Diagnostics for analysis.

## C[C@@H]1C[C@H]2[C@@H]3CCC4=CC(=O)C=C[C@]4(C)[C@@]3(F)[C@@H](O)C[C@]2(C)[C@@]1(O)C(=O)CO [Dex, dexamethasone, reference compound]
[1]
  AUC (All Paws) - Corrected for Initial Score: *−5.85(0.73)
  Change in Body Weight (g): −2.22(0.54) g
  Histopathology Summed Score Knees: *1.80(0.66)
  Histopathology Summed Score Paws: *0.09(0.09)
  Histopathology Summed Score Six-Joints: *0.66(0.21)
  Paw Score AUC (All Paws): *1.30(0.37)
[2]; 0.2 mg/kg PO QD, mean(SE)
  AUC (All Paws) - Corrected for Initial Score: *−29.54(2.39)
  Change in Body Weight (g) Days 1-19: −0.17(0.28) g
  Histopathology Summed Score Knees: *5.23(0.89)
  Histopathology Summed Score Paws: *7.20(1.00)
  Histopathology Summed Score Six-Joints: *6.54(0.91)
  Paw Score AUC (All Paws): *16.61(2.05)
[2]; 0.2 mg/kg QD
  absolute spleen weights, reduction vs vehicle controls: 156%
  knee bone resorption, reduction vs vehicle controls: 88%
  knee cartilage damage, reduction vs vehicle controls: 39%
  knee inflammation, reduction vs vehicle controls: 57%
  knee pannus formation, reduction vs vehicle controls: 86%
  six joint histopathology, reduction of summed scores: 57%
  summed knee scores, reduction vs vehicle controls: 57%

## O=P1(N(CCCl)CCCl)NCCCO1 (stereo not drawn) [Cyclophosphamide, cyclophosphamide, reference compound]
[3]
  Percent Survival: 100%
  anti-dsDNA IgG levels in plasma, reduction vs Vehicle Disease Controls: 76%
[3]; All Animals, mean (SE)
  Histopathology Glomerulus Diameter: *67.73 (2.10)
  Histopathology Interstitial Inflammation: *0.95 (0.19)
  Histopathology Summed Score: *2.18 (0.57)
  Kidney (paired) Weight (g): *0.432 (0.01) g
[3]; Term Animals, mean (SE)
  Change in Body Weight (g) wk 1-12: 3.30 (0.32) g
  Histopathology Glomerulus Diameter: *67.73 (2.10)
  Histopathology Interstitial Inflammation: *0.95 (0.19)
  Histopathology Summed Score: *2.18 (0.57)
  Kidney (paired) Weight (g): *0.432 (0.01) g
[3]; all animals
  absolute cumulative lymph node weights, reduction vs Vehicle Disease Controls: 87%
  absolute kidney weights, reduction vs Vehicle Disease Controls: 23%
  absolute mesenteric lymph node weights, reduction vs Vehicle Disease Controls: 76%
  absolute spleen weights, reduction vs Vehicle Disease Controls: 77%
  glomerulus crescent score, reduction: 100%
  glomerulus diameter, reduction: 89%
  glomerulus score, reduction: 88%
  interstitial inflammation, reduction: 74%
  percent of glomeruli with crescents, reduction: 100%
  protein cast score, reduction: 90%
  summed histopathology scores, reduction: 86%
  vasculitis, reduction: 82%
[3]; all animals or term animals only
  serum clinical chemistries vs Vehicle Disease Controls: significantly increased ALB, A/G, alkaline phosphatase (ALK), GLU, and Na/K and significantly reduced globulin (GLOB), BUN, BUN/creatinine, K, and AMY
[3]; all animals, mouse age 14-23 weeks
  urine protein scores vs Vehicle Disease Controls: significantly reduced
[3]; mouse age 15-23 weeks, all or term animals
  lymphadenopathy scores vs Vehicle Disease Controls: significantly reduced
[3]; mouse age 20-23 weeks, all or term animals
  skin lesion scores vs Vehicle Disease Controls: significantly reduced
[3]; term animals
  absolute cumulative lymph node weights, reduction vs Vehicle Disease Controls: 90%
  absolute kidney weights, reduction vs Vehicle Disease Controls: 32%
  absolute mesenteric lymph node weights, reduction vs Vehicle Disease Controls: 82%
  absolute spleen weights, reduction vs Vehicle Disease Controls: 82%
[3]; term animals only
  glomerulus crescent score, reduction: 100%
  glomerulus diameter, reduction: 85%
  glomerulus score, reduction: 86%
  interstitial inflammation, reduction: 70%
  percent of glomeruli with crescents, reduction: 100%
  protein cast score, reduction: 86%
  summed histopathology scores, reduction: 82%
  vasculitis, reduction: 80%
[3]; term animals only, mouse age 14-16 and 19-23 weeks
  urine protein scores vs Vehicle Disease Controls: significantly reduced
[3]; week 1 to week 5
  body weight gain: 1.03 g
